# How the values were obtained:
# Format in all cases: cell-based
# NCI-H358 = test: Inhibition of cell proliferation, NCI-H358 (CCK-8); conditions: Homo sapiens, NCI-H358 cells, read-out: Inhibition activity on the proliferation of different cell lines NCI-H358 (IC50)
# Method: (§1) (1) MV-411 cells were cultured in the cell culture medium, and then well-growing cells were selected and inoculated in a 96-well plate at 80 μL/well, with 2×10^4 cells/well. The plate was incubated overnight in a 5% CO2 cell incubator at 37° C.
# (§2) (2) 10 mM storage solution of each drug was prepared using dimethylsulfoxide (DMSO). The stock solution was diluted in a ratio of 1:3 with DMSO before use, and then the solution was serially diluted in a ratio of 1:3, to obtain 9 gradient concentrations. Each concentration was further diluted with the medium in a ratio of 1:200 (to ensure that the DMSO concentration in the culture system was 0.1%). Two wells were set for each concentration. 20 μL of each compound solution was added to the cell culture well (with a final concentration of 10 μM, 3.3 μM, 1.1 μM . . . ). The plate was gently shaken and mixed. Additionally, 3 negative control wells (only containing cells) and 3 blank control wells (only containing the medium) were included (6 wells were each added with 20 μL of DMSO diluted with the medium in a ratio of 1:200).
# (§3) (1) After 5 days of cultivation, 10 μL of CCK-8 was added to each well, and then the plate was further cultured for 3 h at 37° C. in a 5% CO2 cell incubator.
# (§4) (2) The absorbance (OD value) was measured at 450 nm with a multifunctional microplate reader. (3) The data were analyzed using the Dose-response-inhibition equation in GraphPad Prism8 software to obtain the IC50 value.
# (§5) Using a similar method, the IC50 value (nM) for the inhibitory activity of the compound according to the present invention against different cell lines was obtained, and the results are shown in Table 3 (++++: IC50>5 μM; +++: 1 μM<IC50<5 μM; ++: IC50<1 μM).
# SHP2 protein [1] = biological target: T1, SHP2 protein (Homo sapiens, UniProt Q06124); test: Degradation activity on SHP2 protein in MIA Paca-2 cells (Western blot, DC50); set-up: endogenous in cells; host or cells: MIA Paca-2 cells; conditions: read-out: Degradation activity for differenct cell lines MIA Paca-2 (DC50)
# T1 sequence (Q06124 1-593): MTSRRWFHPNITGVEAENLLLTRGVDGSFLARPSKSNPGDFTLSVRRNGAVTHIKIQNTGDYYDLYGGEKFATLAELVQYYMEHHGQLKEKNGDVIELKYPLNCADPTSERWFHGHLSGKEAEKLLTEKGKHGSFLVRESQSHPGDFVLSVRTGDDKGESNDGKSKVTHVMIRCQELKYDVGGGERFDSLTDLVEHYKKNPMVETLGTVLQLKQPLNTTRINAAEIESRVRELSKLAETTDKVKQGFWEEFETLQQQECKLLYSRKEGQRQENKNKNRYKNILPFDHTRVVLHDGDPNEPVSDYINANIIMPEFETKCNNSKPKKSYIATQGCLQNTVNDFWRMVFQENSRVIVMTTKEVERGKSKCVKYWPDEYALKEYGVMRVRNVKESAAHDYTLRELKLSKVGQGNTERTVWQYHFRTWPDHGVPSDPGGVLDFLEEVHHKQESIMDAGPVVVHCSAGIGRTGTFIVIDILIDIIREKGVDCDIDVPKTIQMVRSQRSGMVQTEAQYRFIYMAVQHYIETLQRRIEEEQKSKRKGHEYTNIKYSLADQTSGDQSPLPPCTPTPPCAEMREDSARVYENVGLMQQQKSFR
# In short: (§6)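 Cells were treated 24 h at 37 °C with compound (0.1–100 nM final, 0.1% DMSO). SHP2 was measured by Western blot with GAPDH as loading control, densitometry normalized to DMSO (100%). DC50, the concentration giving 50% degradation, came from a dose-response fit.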
# MIA Paca-2 = test: Inhibition of cell proliferation, MIA Paca-2 (CCK-8); conditions: Homo sapiens, MIA Paca-2 cells, read-out: Inhibition activity on the proliferation of different cell lines MIA Paca-2 (IC50)
# Method: as §1, §2, §3, §4, §5
# SHP2 protein [2] = biological target: T1, SHP2 protein; test: Degradation activity on SHP2 protein in NCI-H358 cells (Western blot, DC50); set-up: endogenous in cells; conditions: read-out: Degradation activity for differenct cell lines NCI-H358 (DC50)
# In short: as §6
SMILES,IC50 (NCI-H358) [nM],DC50 (SHP2 protein [1]) [nM],IC50 (MIA Paca-2) [nM],DC50 (SHP2 protein [2]) [nM]
CC1(N)CCN(c2cnc(Sc3cccc(NC(=O)CCCCCCCCN4CCN(c5ccc(C(=O)NCc6ccc7c(c6)CN(C6CCC(=O)NC6=O)C7=O)nn5)CC4)c3)cn2)CC1 (stereo not drawn) [Compound 63],< 1000,< 100,1000 to 5000,< 100
CC1(N)CCN(c2cnc(Sc3cccc(NC(=O)CCCCCCCCN4C5CCC4CN(c4ccc(C(=O)NCc6ccc7c(c6)CN(C6CCC(=O)NC6=O)C7=O)nn4)C5)c3)cn2)CC1 (stereo not drawn) [Compound 119],< 1000,< 100,1000 to 5000,< 100
CCC1(N)CCN(c2cnc(Sc3cccc(NC(=O)CCCCCCN4CC5(CCN(c6ccc(C(=O)NCc7ccc8c(c7)CN(C7CCC(=O)NC7=O)C8=O)nn6)C5)C4)c3)cn2)CC1 (stereo not drawn) [Compound 161],1000 to 5000,< 100,1000 to 5000,100 to 1000
NC1(CO)CCN(c2cnc(Sc3cccc(NC(=O)CCCCCCN4CC5(CCN(c6ccc(C(=O)NCc7ccc8c(c7)CN(C7CCC(=O)NC7=O)C8=O)nn6)C5)C4)c3)cn2)CC1 (stereo not drawn) [Compound 168],1000 to 5000,< 100,1000 to 5000,100 to 1000
CC1(N)CCN(c2cnc(Sc3cccc(NC(=O)CCCCCCCCN4CCN(c5ccc(C(=O)NCc6ccc7c(c6)CN(C6CCC(=O)NC6=O)C7=O)nn5)CC4C(F)(F)F)c3)cn2)CC1 (stereo not drawn) [Compound 174],1000 to 5000,< 100,1000 to 5000,< 100
Cc1ncsc1-c1ccc([C@H](C)NC(=O)[C@@H]2C[C@@H](O)CN2C(=O)[C@@H](NC(=O)CCCCCCCCN2CCN(C(=O)CCC(=O)Nc3cccc(Sc4ncc(N5CCC(C)(N)CC5)nc4N)c3Cl)CC2)C(C)(C)C)cc1 [Compound 999],1000 to 5000,< 100,1000 to 5000,< 100

# Source: patent publication US20240383908A1, “SYNTHESIS AND APPLICATION OF PHOSPHATASE DEGRADER” (HINOVA PHARMACEUTICALS INC., priority 2021, published 2024)
